System: bone marrow-derived macrophages (BMDM)
Assay: In vitro macrophage polarization assay (RT-qPCR gene expression)
Type: cell-based, mice
Settings: 0.5 mg/mL recombinant TSG6, 2 days, qPCR vs GAPDH, FIG. 3C
Excerpt: To determine if fibroblast secreted TSG-6 regulates the presence the distinct myeloid subsets between melanoma and pancreatic TME, the inventors performed receptor-ligand studies between the myeloid subsets and fibroblasts. First, the inventors analyzed the relative expression of TSG-6 and its binding partner CD44 in the fibroblasts and macrophage/neutrophil subsets. While TSG-6 was expressed slightly higher in the mT4 tumors as compared to B16F10 tumors, its ligand CD44 was primarily expressed in the macrophage/neutrophil subsets only in the mT4 tumors (FIG. 3A). To determine if this observation correlates with higher interactions between TSG-6 and suppressive myeloid subsets in the mT4 tumors, the inventors performed receptor-ligand interaction studies using CellChat analysis (PMID: 33597522). The analysis indicated strong communication probabilities of fibroblast expressed TSG-6 and myeloid CD44 interaction only in the mT4 tumors and not B16F10 tumors (FIG. 3B). To further evaluate whether TSG-6 regulates the immunosuppressive macrophage phenotype, the inventors performed an in vitro macrophage polarization assay. The inventors stimulated bone marrow-derived macrophages (BMDM) with either LPS or recombinant TSG-6 (rTSG-6) and observed that rTSG-6 increased the expression of Arg1, Mafb, Mrc1, and Vista in the macrophages and suppressed Ifng expression (FIG. 3C). Thus, the above data indicates TSG-6 interacts with suppressive intratumoral myeloid subsets and might have a role to play in resistance to ICT.
TSG-6 stimulated bone marrow derived macrophages (BMDM) and RT-qPCR Gene Expression: BMDM were isolated from the femurs of wild type C57/BL6 mice in ice cold complete RPMI 1640 media. Both epiphyses were removed before the bones were placed in sterile microfuge tubes and centrifuged at 500×g for 5 minutes at 4° C. to extrude the bone marrow. The collected bone marrow was homogenized by pipetting followed by RBC lysis. The single cell suspension of bone marrow cells obtained, was counted in an automated Vicell cell counter before 2.0e6 cells/well were cultured in Iscove's Modified Dulbecco's Medium (IMDM) supplemented with 10% FBS and 10 ng/ml Macrophage colony-stimulating factor (M-CSF) (Biolegend, Cat #576404)) in a 12 well plate. On Day 3, cells were resuspended in fresh growth media and on Day 7, cells were subjected to fresh complete IMDM containing 100 ng/ml LPS (InvivoGen, Cat #tlrl-eblps) and 0.5 mg/mL recombinant TSG6 (R&D Systems, Cat #2326-TS-050) and left in culture for 2 days. Supernatants were removed and adhered macrophages were subjected to Accutase cell detachment solution following manufacturers protocol (Innovative Cell Technologies, 07920). Macrophages were resuspended and centrifuged at 350×g for 8 minutes. Cell pellets were lysed with 350 uL buffer RLT lysis buffer (Qiagen, 74104) supplemented with B-ME and subjected to RNA extraction using RNA mini extraction kit (Qiagen, 74104). cDNA was synthesized using the NEB LunaScript RT SuperMix Kit (E3010L) and 30 ng of total cDNA was used for each 20 uL qPCR reaction. Taqman gene expression Real-Time PCR assays were run using manufacturers protocol and gene targets were compared to GAPDH housekeeping expression (GAPDH, Mm05724508_g1; IFNg, Mm01168134_m1; Mrc1, Mm01329359_m1; Arg1, Mm00475988_m1; Mafb, Mm00627481_s1, VISTA, Mm00472312_m1).

rTSG-6: recombinant TSG6 protein, R&D Systems, Cat #2326-TS-050
Ifng expression: suppressed | expression of Arg1: increased | expression of Mafb: increased | expression of Mrc1: increased | expression of Vista: increased

— US20250377365A1, “METHODS INVOLVING DETECTING TNF STIMULATED GENE 6 (TSG-6) FOR IMPROVING ANTI-TUMOR RESPONSES TO IMMUNE THERAPY IN CANCER PATIENTS” (BOARD OF REGENTS, THE UNIVERSITY OF TEXAS SYSTEM, priority 2022, published 2025)
